# Experimental data: patent US8329693B2, “Method for the prevention of thromboembolic disorders” (Orion Corporation, priority 2004, dated 2012)
# System: Kininogen
# Assay: Effect on kininogen expression in rat heart (2-DE gels, silver staining, MALDI-TOF)
# Type: in vivo, Rattus novergicus
# Settings: levosimendan orally 20 mg/l in tab water for eight days
# Procedure: Rats were given levosimendan orally 20 mg/l in tab water and controls only tab water for eight days. Hearts were frozen in liquid nitrogen and stored at −80° C. The heart tissues were lyophilized on ice over night and incubated in lysis buffer; 9 M urea, 20 mM Tris-HCl pH 7.4, 50 mM KCl, 3 mM EDTA pH 7.5, 0.5% IPG buffer 3-10 NL, 5 mM PMSF, 1% DTT and Benzoase 100 Units for 10 min at room temperature. The protein solution was then sonicated 2×15 s and centrifuged at 14000 rpm for 5 min. The supernatants were collected and the protein amount measured based on the protein assay kit from BioRad. 40 μg protein solution was diluted in 350 μl of rehydration buffer; 7 M urea, 2 M thiourea, 2 mM TBP, 0.5% IPG buffer 3-10 NL, 4% CHAPS and 0.2% BFB, incubated for 30 min at room temperature and centrifuged for 5 min at 14000 rpm. […]
# The focused strips were equilibrated in the following buffer: 6 M urea, 50 mM Tris-HCl, pH 8.8, 2% SDS, 30% glycerol, 2% DTT, 2.5% iodoacetamide and 0.2% BFB 2×10 min at room temperature. […] The silver stained gels were analyzed by PD-QUEST(6.2) 2-DE software (BIO-RAD). […]
# All samples were prepared by reversed phase pipette tips C18 (ZipTip, Millipore). […] The samples were analyzed in a TOF mass spectrometer (Voyager-DE PRO). […] The masses of the obtained peptides were analysed by the MS-fit program on the Expasy Molecular Biology server PeptIdent.
smiles,measurement,value
"CC1CC(=O)NN=C1c1ccc(NN=C(C#N)C#N)cc1 (single isomer, unassigned; (-)) [levosimendan, (−)-enantiomer of [[4-(1,4,5,6-tetrahydro-4-methyl-6-oxo-3-pyridazinyl)phenyl]hydrazono]propanedinitrile]",kininogen protein expression in rat heart versus control,ten fold up-regulated
